PubChem BioAssay (NCI)
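How tested: cells in 96-well plates exposed to compound for 48 hours at five concentrations. The concentration for full growth arrest is given as TGI.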

Experiments:
Test in all cases: DTP human tumour cell line panel, 48 h
[1] = test system: OVCAR-4 ovarian
[2] = test system: SW-620 colon
[3] = test system: ACHN renal
[4] = test system: SK-MEL-28 melanoma
[5] = test system: TK-10 renal
[6] = test system: A549 NSCLC
[7] = test system: T-47D breast
[8] = test system: HCT-116 colon
[9] = test system: NCI-H460 lung
[10] = test system: BT-549 breast
[11] = test system: MDA-MB-435
[12] = test system: MCF7 breast
[13] = test system: SR leukemia
[14] = test system: HOP-62 NSCLC
[15] = test system: EKVX NSCLC
[16] = test system: SK-MEL-5 melanoma
[17] = test system: HS 578T breast
[18] = test system: K-562 leukemia
[19] = test system: SN12C renal
[20] = test system: UO-31 renal
[21] = test system: SNB-19 CNS
[22] = test system: UACC-62 melanoma
[23] = test system: HCC-2998 colon
[24] = test system: NCI-H23 lung
[25] = test system: M14 melanoma
[26] = test system: A498 renal
[27] = test system: HOP-92 NSCLC
[28] = test system: RPMI-8226 leukemia
[29] = test system: UACC-257 melanoma
[30] = test system: NCI/ADR-RES ovarian
[31] = test system: NCI-H226 lung
[32] = test system: SF-539 CNS
[33] = test system: SF-295 CNS
[34] = test system: OVCAR-8 ovarian
[35] = test system: OVCAR-3 ovarian
[36] = test system: IGROV1 ovarian
[37] = test system: COLO 205 colon
[38] = test system: DU-145 prostate
[39] = test system: PC-3 prostate
[40] = test system: 786-0 renal
[41] = test system: U251 CNS
[42] = test system: RXF 393 renal
[43] = test system: MOLT-4 leukemia
[44] = test system: OVCAR-5 ovarian
[45] = test system: NCI-H522 lung
[46] = test system: CAKI-1 renal
[47] = test system: MALME-3M melanoma
[48] = test system: HT29 colon
[49] = test system: KM12 colon
[50] = test system: SK-OV-3 ovarian
[51] = test system: HL-60(TB) leukemia
[52] = test system: LOX IMVI melanoma
[53] = test system: SK-MEL-2 melanoma
[54] = test system: MDA-N
[55] = test system: MDA-MB-231 breast
[56] = test system: CCRF-CEM leukemia
[57] = test system: SF-268 CNS
[58] = test system: SNB-75 CNS
[59] = test system: HCT-15 colon

## CC(C)OC(=O)OCSc1ccccc1N=Cc1cccc([N+](=O)[O-])c1
[1]
  TGI: > 10 µM
[2]
  TGI: > 10 µM
[3]
  TGI: > 10 µM
[4]
  TGI: > 10 µM
[5]
  TGI: > 10 µM
[6]
  TGI: > 10 µM
[7]
  TGI: > 10 µM
[8]
  TGI: > 10 µM
[9]
  TGI: > 10 µM
[10]
  TGI: > 10 µM
[11]
  TGI: > 10 µM
[12]
  TGI: > 10 µM
[13]
  TGI: > 10 µM
[14]
  TGI: > 10 µM
[15]
  TGI: > 10 µM
[16]
  TGI: > 10 µM
[17]
  TGI: > 10 µM
[18]
  TGI: > 10 µM
[19]
  TGI: > 10 µM
[20]
  TGI: > 10 µM
[21]
  TGI: > 10 µM
[22]
  TGI: > 10 µM
[23]
  TGI: > 10 µM
[24]
  TGI: > 10 µM
[25]
  TGI: > 10 µM
[26]
  TGI: > 10 µM
[27]
  TGI: > 10 µM
[28]
  TGI: > 10 µM
[29]
  TGI: > 10 µM
[30]
  TGI: > 10 µM
[31]
  TGI: > 10 µM
[32]
  TGI: > 10 µM
[33]
  TGI: > 10 µM
[34]
  TGI: > 10 µM
[35]
  TGI: > 10 µM
[36]
  TGI: > 10 µM
[37]
  TGI: > 10 µM
[38]
  TGI: > 10 µM
[39]
  TGI: > 10 µM
[40]
  TGI: > 10 µM
[41]
  TGI: > 10 µM
[42]
  TGI: > 10 µM
[43]
  TGI: > 10 µM
[44]
  TGI: > 10 µM
[45]
  TGI: > 10 µM
[46]
  TGI: > 10 µM
[47]
  TGI: > 10 µM
[48]
  TGI: > 10 µM
[49]
  TGI: > 10 µM
[50]
  TGI: > 10 µM
[51]
  TGI: > 10 µM
[52]
  TGI: > 10 µM
[53]
  TGI: > 10 µM
[54]
  TGI: > 10 µM
[55]
  TGI: > 10 µM
[56]
  TGI: > 10 µM
[57]
  TGI: > 10 µM
[58]
  TGI: > 10 µM
[59]
  TGI: > 10 µM

## O=c1[nH]c(Nc2cccc(CO)c2)nc2nc[nH]c12
[1]
  TGI: > 100 µM
[2]
  TGI: > 100 µM
[3]
  TGI: > 100 µM
[4]
  TGI: > 100 µM
[5]
  TGI: > 100 µM
[6]
  TGI: > 100 µM
[7]
  TGI: > 100 µM
[8]
  TGI: > 100 µM
[10]
  TGI: > 100 µM
[11]
  TGI: > 100 µM
[12]
  TGI: > 100 µM
[13]
  TGI: > 100 µM
[14]
  TGI: > 100 µM
[15]
  TGI: > 100 µM
[16]
  TGI: > 100 µM
[17]
  TGI: > 100 µM
[18]
  TGI: > 100 µM
[19]
  TGI: > 100 µM
[20]
  TGI: > 100 µM
[21]
  TGI: > 100 µM
[22]
  TGI: > 100 µM
[23]
  TGI: > 100 µM
[24]
  TGI: > 100 µM
[25]
  TGI: > 100 µM
[27]
  TGI: > 100 µM
[28]
  TGI: > 100 µM
[29]
  TGI: > 100 µM
[30]
  TGI: > 100 µM
[31]
  TGI: > 100 µM
[32]
  TGI: > 100 µM
[33]
  TGI: > 100 µM
[34]
  TGI: > 100 µM
[35]
  TGI: > 100 µM
[36]
  TGI: > 100 µM
[37]
  TGI: > 100 µM
[38]
  TGI: > 100 µM
[39]
  TGI: > 100 µM
[40]
  TGI: > 100 µM
[41]
  TGI: > 100 µM
[42]
  TGI: > 100 µM
[43]
  TGI: > 100 µM
[44]
  TGI: > 100 µM
[45]
  TGI: > 100 µM
[46]
  TGI: > 100 µM
[47]
  TGI: > 100 µM
[48]
  TGI: > 100 µM
[49]
  TGI: > 100 µM
[50]
  TGI: > 100 µM
[51]
  TGI: > 100 µM
[52]
  TGI: > 100 µM
[53]
  TGI: > 100 µM
[54]
  TGI: > 100 µM
[55]
  TGI: > 100 µM
[56]
  TGI: > 100 µM
[57]
  TGI: > 100 µM
[58]
  TGI: > 100 µM
[59]
  TGI: > 100 µM
